{"source": "ChEMBL document CHEMBL1201862", "about": "“PubChem BioAssay data set” (2004)", "test_in_all_cases": "NCI tumour cell line growth inhibition, 48 h", "key": {"SR": {"test_system": "SR"}, "EKVX": {"test_system": "EKVX"}, "NCI-H460": {"test_system": "NCI-H460"}, "HCT-15": {"test_system": "HCT-15"}, "OVCAR-3": {"test_system": "OVCAR-3"}, "SK-MEL-28": {"test_system": "SK-MEL-28"}, "U-251": {"test_system": "U-251"}, "TK-10": {"test_system": "TK-10"}, "RXF 393": {"test_system": "RXF 393"}, "UACC-257": {"test_system": "UACC-257"}, "SW-620": {"test_system": "SW-620"}, "OVCAR-5": {"test_system": "OVCAR-5"}, "LOX IMVI": {"test_system": "LOX IMVI"}, "SK-MEL-5": {"test_system": "SK-MEL-5"}, "UO-31": {"test_system": "UO-31"}, "K562": {"test_system": "K562"}, "KM-20L2": {"test_system": "KM-20L2"}, "SN12C": {"test_system": "SN12C"}, "DMS-114": {"test_system": "DMS-114"}, "A498": {"test_system": "A498"}, "SF-268": {"test_system": "SF-268"}, "OVCAR-4": {"test_system": "OVCAR-4"}, "CAKI-1": {"test_system": "CAKI-1"}, "NCI-H522": {"test_system": "NCI-H522"}, "A549": {"test_system": "A549"}, "M14": {"test_system": "M14"}, "SF-539": {"test_system": "SF-539"}, "MDA-MB-231": {"test_system": "MDA-MB-231"}, "COLO 205": {"test_system": "COLO 205"}, "SK-OV-3": {"test_system": "SK-OV-3"}, "OVCAR-8": {"test_system": "OVCAR-8"}, "MDA-MB-435": {"test_system": "MDA-MB-435"}, "HOP-62": {"test_system": "HOP-62"}, "NCI-H226": {"test_system": "NCI-H226"}, "SNB-75": {"test_system": "SNB-75"}, "Hs-578T": {"test_system": "Hs-578T"}, "ACHN": {"test_system": "ACHN"}, "MDA-N": {"test_system": "MDA-N"}, "786-0": {"test_system": "786-0"}, "UACC-62": {"test_system": "UACC-62"}, "HCT-116": {"test_system": "HCT-116"}, "MOLT-4": {"test_system": "MOLT-4"}, "IGROV-1": {"test_system": "IGROV-1"}, "KM12": {"test_system": "KM12"}, "SNB-19": {"test_system": "SNB-19"}, "T47D": {"test_system": "T47D"}, "SF-295": {"test_system": "SF-295"}, "RPMI-8226": {"test_system": "RPMI-8226"}, "HCC 2998": {"test_system": "HCC 2998"}, "PC-3": {"test_system": "PC-3"}, "CCRF-CEM": {"test_system": "CCRF-CEM"}, "NCI/ADR-RES": {"test_system": "NCI/ADR-RES"}, "BT-549": {"test_system": "BT-549"}, "HT-29": {"test_system": "HT-29"}, "HOP-92": {"test_system": "HOP-92"}, "DU-145": {"test_system": "DU-145"}, "HL-60": {"test_system": "HL-60"}, "MCF7": {"test_system": "MCF7"}, "SK-MEL-2": {"test_system": "SK-MEL-2"}, "Malme-3M": {"test_system": "Malme-3M"}, "NCI-H23": {"test_system": "NCI-H23"}}, "note": "Structures can show the parent of a compound that is named as a salt.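 48-hour exposure; five concentrations; linearly interpolated endpoints. Here, GI50 denotes the concentration required for 50% inhibition of growth.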 Active and inactive are the calls of the source. No stated cut-off is given here; in the data, active = GI50 up to about 1.1 µM and inactive = higher."}
{"smiles": "COc1ccc2c(=O)c(C)c(-c3ccccc3)oc2c1CN(C)C", "note": "[DIMEFLINE HYDROCHLORIDE]", "values": [{"measurement": "GI50", "setting": "SR", "result": "84.5 µM (inactive)"}, {"measurement": "GI50", "setting": "EKVX", "result": "> 100 µM (inactive)"}, {"measurement": "GI50", "setting": "NCI-H460", "result": "82.8 µM (inactive)"}, {"measurement": "GI50", "setting": "HCT-15", "result": "> 100", "unit": "µM"}, {"measurement": "GI50", "setting": "OVCAR-3", "result": "> 100 µM (inactive)"}, {"measurement": "GI50", "setting": "SK-MEL-28", "result": "> 100 µM (inactive)"}, {"measurement": "GI50", "setting": "U-251", "result": "> 100 µM (inactive)"}, {"measurement": "GI50", "setting": "TK-10", "result": "99.8 µM (inactive)"}, {"measurement": "GI50", "setting": "RXF 393", "result": "76 µM (inactive)"}, {"measurement": "GI50", "setting": "UACC-257", "result": "> 100 µM (inactive)"}, {"measurement": "GI50", "setting": "SW-620", "result": "> 100 µM (inactive)"}, {"measurement": "GI50", "setting": "OVCAR-5", "result": "47.1 µM (inactive)"}, {"measurement": "GI50", "setting": "LOX IMVI", "result": "69.3 µM (inactive)"}, {"measurement": "GI50", "setting": "SK-MEL-5", "result": "55 µM (inactive)"}, {"measurement": "GI50", "setting": "UO-31", "result": "85.7 µM (inactive)"}, {"measurement": "GI50", "setting": "K562", "result": "57.1 µM (inactive)"}, {"measurement": "GI50", "setting": "KM-20L2", "result": "58.2 µM (inactive)"}, {"measurement": "GI50", "setting": "SN12C", "result": "> 100 µM (inactive)"}, {"measurement": "GI50", "setting": "DMS-114", "result": "> 100 µM (inactive)"}, {"measurement": "GI50", "setting": "A498", "result": "56.4 µM (inactive)"}, {"measurement": "GI50", "setting": "SF-268", "result": "> 100 µM (inactive)"}]}
{"smiles": "Cc1ccc(NC(c2ccccc2)c2ccc3cccnc3c2O)cc1", "note": "(stereo not given)", "values": [{"measurement": "GI50", "setting": "OVCAR-4", "result": "3.85 µM (inactive)"}, {"measurement": "GI50", "setting": "SR", "result": "2.44 µM (inactive)"}, {"measurement": "GI50", "setting": "CAKI-1", "result": "5.11 µM (inactive)"}, {"measurement": "GI50", "setting": "NCI-H522", "result": "2.17 µM (inactive)"}, {"measurement": "GI50", "setting": "A549", "result": "5.56 µM (inactive)"}, {"measurement": "GI50", "setting": "EKVX", "result": "3.47 µM (inactive)"}, {"measurement": "GI50", "setting": "NCI-H460", "result": "2.58 µM (inactive)"}, {"measurement": "GI50", "setting": "M14", "result": "4.69 µM (inactive)"}, {"measurement": "GI50", "setting": "HCT-15", "result": 2.64, "unit": "µM"}, {"measurement": "GI50", "setting": "SF-539", "result": "2.33 µM (inactive)"}, {"measurement": "GI50", "setting": "OVCAR-3", "result": "2.59 µM (inactive)"}, {"measurement": "GI50", "setting": "MDA-MB-231", "result": "4.55 µM (inactive)"}, {"measurement": "GI50", "setting": "COLO 205", "result": "4.68 µM (inactive)"}, {"measurement": "GI50", "setting": "SK-MEL-28", "result": "9.29 µM (inactive)"}, {"measurement": "GI50", "setting": "SK-OV-3", "result": "7.91 µM (inactive)"}, {"measurement": "GI50", "setting": "OVCAR-8", "result": "2.64 µM (inactive)"}, {"measurement": "GI50", "setting": "U-251", "result": "2.82 µM (inactive)"}, {"measurement": "GI50", "setting": "MDA-MB-435", "result": "5.87 µM (inactive)"}, {"measurement": "GI50", "setting": "TK-10", "result": "5.22 µM (inactive)"}, {"measurement": "GI50", "setting": "RXF 393", "result": "4.4 µM (inactive)"}, {"measurement": "GI50", "setting": "HOP-62", "result": "4.97 µM (inactive)"}, {"measurement": "GI50", "setting": "UACC-257", "result": "9.79 µM (inactive)"}, {"measurement": "GI50", "setting": "SW-620", "result": "6.34 µM (inactive)"}, {"measurement": "GI50", "setting": "NCI-H226", "result": "2.7 µM (inactive)"}, {"measurement": "GI50", "setting": "SNB-75", "result": "6.37 µM (inactive)"}, {"measurement": "GI50", "setting": "Hs-578T", "result": "9.02 µM (inactive)"}, {"measurement": "GI50", "setting": "OVCAR-5", "result": "7.11 µM (inactive)"}, {"measurement": "GI50", "setting": "LOX IMVI", "result": "3.6 µM (inactive)"}, {"measurement": "GI50", "setting": "ACHN", "result": "3.67 µM (inactive)"}, {"measurement": "GI50", "setting": "SK-MEL-5", "result": "3.97 µM (inactive)"}, {"measurement": "GI50", "setting": "MDA-N", "result": "4.1 µM (inactive)"}, {"measurement": "GI50", "setting": "786-0", "result": "3.61 µM (inactive)"}, {"measurement": "GI50", "setting": "UO-31", "result": "3.33 µM (inactive)"}, {"measurement": "GI50", "setting": "UACC-62", "result": "3.84 µM (inactive)"}, {"measurement": "GI50", "setting": "HCT-116", "result": "3.23 µM (inactive)"}, {"measurement": "GI50", "setting": "MOLT-4", "result": "2.37 µM (inactive)"}, {"measurement": "GI50", "setting": "IGROV-1", "result": "4.09 µM (inactive)"}, {"measurement": "GI50", "setting": "KM12", "result": "5.02 µM (inactive)"}, {"measurement": "GI50", "setting": "K562", "result": "3.02 µM (inactive)"}, {"measurement": "GI50", "setting": "SN12C", "result": "4.63 µM (inactive)"}, {"measurement": "GI50", "setting": "SNB-19", "result": "6.37 µM (inactive)"}, {"measurement": "GI50", "setting": "T47D", "result": "7.23 µM (inactive)"}, {"measurement": "GI50", "setting": "SF-295", "result": "3.72 µM (inactive)"}, {"measurement": "GI50", "setting": "RPMI-8226", "result": "2.61 µM (inactive)"}, {"measurement": "GI50", "setting": "HCC 2998", "result": "16.4 µM (inactive)"}, {"measurement": "GI50", "setting": "A498", "result": "12.2 µM (inactive)"}, {"measurement": "GI50", "setting": "PC-3", "result": "3.66 µM (inactive)"}, {"measurement": "GI50", "setting": "CCRF-CEM", "result": "0.787 µM (active)"}, {"measurement": "GI50", "setting": "NCI/ADR-RES", "result": "2.79 µM (inactive)"}, {"measurement": "GI50", "setting": "BT-549", "result": "4.33 µM (inactive)"}, {"measurement": "GI50", "setting": "HT-29", "result": "2.9 µM (inactive)"}, {"measurement": "GI50", "setting": "HOP-92", "result": "3.48 µM (inactive)"}, {"measurement": "GI50", "setting": "DU-145", "result": "11.1 µM (inactive)"}, {"measurement": "GI50", "setting": "HL-60", "result": "2.04 µM (inactive)"}, {"measurement": "GI50", "setting": "MCF7", "result": "3.14 µM (inactive)"}, {"measurement": "GI50", "setting": "SK-MEL-2", "result": "7.5 µM (inactive)"}, {"measurement": "GI50", "setting": "Malme-3M", "result": "3.05 µM (inactive)"}, {"measurement": "GI50", "setting": "SF-268", "result": "2.24 µM (inactive)"}, {"measurement": "GI50", "setting": "NCI-H23", "result": "5.79 µM (inactive)"}]}
